How the values were obtained:
Format in all cases: cell-based
[1] = system: Human iPSCs derived inner ear organoid; assay: SOX2 and Tuj1 expression by confocal microscopy; settings: day 33-60; FIG. 18
Procedure: (§1) FIG. 1 illustrates methods for generating inner ear hair cells from the induced pluripotent stem cells. The inventor added a combination of agents and inhibitors at developmental stages of the inner ear organoid culture to produce the invention. In particular: • (i) ROCK inhibitor (Y-27632) is added to iPSC in suspension culture to promote the formation of three-dimensional embryoid bodies for about 3 days. • (ii) TGF-β inhibitor (SB-431542) is added at low concentration of FGF to drive the development of non-neural ectoderm in days 0 to 3. • (iii) The cultures are then transitioned to medium containing a high concentration of FGF and BMP inhibitor (LDN-193189) during days 4-7, which drives development of the early pre-otic placodal epithelium/pre-placodal ectoderm. • (iv) Next, Wnt agonist (CHIR-99021) is added to stimulate development of otic placode from days 8-11, otic pit formation from days 12-14 and otic prosensory vesicles from days 15-17. • (v) From days 18-32, hedgehog signalling inhibitor (CYC, GANT58 or GANT61) is added to promote the formation of sensory epithelium vesicles, and continued culture under these conditions results in the formation of sensory hair cells with neural innervation from day 33 onwards.
To identify the development of sensory hair cells of inner ear organoids at Day 33-60, the SOX2 and Tuj1 expression in organoids was observed by using confocal microscopy. The results are presented in FIG. 18, which compares organoids developed using (a) the method of Example 1 with cyclopamine (Example 2), and (b) the method of Example 1 with GANT58 (Example 3) and GANT61 (Example 4).

[2] = system: Human iPSCs derived inner ear organoid; assay: ECAD and PAX2 expression by confocal microscopy (ectodermal cell fate); settings: day 20; treated aggregates, compared with Koehler method
Procedure: as §1
To identify the ectodermal cell fate of inner ear organoids at Day 20-40, the ECAD and PAX2 expression in organoids was observed by using confocal microscopy, comparing organoids developed using (a) Koehler's method without Hh inhibitors, (b) the method of Example 1 with cyclopamine as the SHH inhibitor (Example 2), (c) the method of Example 1 with GANT58 as the SHH inhibitor (Example 3) and (d) the method of Example 1 with GANT61 as the SHH inhibitor (Example 4). […] The ectodermal cell fate of the inner ear organoids developed better with the SHH inhibitors compared with the Koehler method. […] The formation of ectodermal cell appeared to be continuous, beginning on day 7 until approximately day 20-40.

[3] = system: Human iPSCs derived inner ear organoid; assay: Single cell RNA sequencing and TaqMan qRT-PCR cell fate analysis; settings: for inner ear hair cell differentiation in comparison with organoids developed using the Koehler method: RNA sequencing and TaqMan qRT-PCR, FIGS. 15 and 16; for hair cell and neuronal markers by single cell RNA sequencing: organoids at Day 60, Koehler method ~57.88%
Procedure: FIG. 1 illustrates methods for generating inner ear hair cells from the induced pluripotent stem cells. The inventor added a combination of agents and inhibitors at developmental stages of the inner ear organoid culture to produce the invention.
To verify the hair cell marker genes in RNAseq transcriptome analysis, quantitative TaqMan® real-time polymerase chain reaction (qRT-PCR) in inner ear organoids was performed to identify the level of hair cell gene expression. FIG. 15 illustrates sensory hair cell-specific gene expression analysis on human iPSCs derived inner ear organoid at Day 60 by single cell RNA sequencing transcriptome analysis. FIG. 16 illustrates otic epithelial-specific gene expression in inner ear organoids at Day 20 and inner ear sensory cell-specific gene expression in inner ear organoids at Day 60 by TaqMan® qRT-PCR analyses. The presence of MyoVI represents inner ear hair cell differentiation.

[4] = system: Human iPSCs derived inner ear organoid; assay: MyosinVIIa and Tuj1 immunostaining with confocal imaging (sensory hair cells and nerve innervation); settings: for sensory hair cells and neuronal cells in organoids / sensory hair cells and supporting cells in organoids: day 33-60; for sensory hair cells and neuronal cells in organoids: FIG. 17; for inner ear hair cells and nerve innervation detected: inhibitor 1 μM from day 18, removed day 33, 10% Matrigel; for sensory hair cells and supporting cells in organoids: FIG. 14
Procedure: as §1
On day 18, the SHH inhibitor cyclopamine (CAT 239803 from Merck Millipore) was added to the cell culture to reach a final concentration of 1 μM. Matrigel® was also added to the cell culture to reach a concentration of 10%. The cells were cultured in organoid maturation medium until day 33.
On day 33, the cyclopamine was removed from the medium by washing and the droplet aggregates were remained in the cell culture containing 10% Matrigel®.
The cells were then cultured for up to 200 days in the Organoid Maturation Medium containing 10% Matrigel®. 200 μL of medium was changed daily for each well. The cells were cultured until 60-100 days, until an examination of the cell's morphology determined maturation. The viable, medium size and round 3D shape organoids with inner ear sensory cell gene expression markers were selected for analysis.
Inner ear hair cells and nerve innervation was detected after Day 35. The presence and number of inner ear hair cells was detected by immunostaining and capture with confocal imaging.
(§2) To identify the development of sensory hair cells of inner ear organoids at Day 33-60, the MyosinVIIa and Tuj1 expression in organoids was observed by using confocal microscopy. The results are presented in FIG. 14, which compares organoids developed using (a) the method of Example 1 with cyclopamine (Example 2), and (b) the method of Example 1 with GANT58 (Example 2). […] An opaque outer cell mass is indicative of complete re-organization, which was found in organoids developed using each of the SHH inhibitors. In comparison, less translucent epithelium indicative of incomplete or partial re-organization was found in organoids developed using the Koehler method. Sensory hair cell epithelium through the aggregate surface was found in organoids developed using each SHH inhibitor.
as §2, with “MyoVIIa” for “MyosinVIIa”, “17,” for “14,”, “3) and GANT61 (Example 4).” for “2).”, “inhibitors.” for “inhibitors. In comparison, less translucent epithelium indicative of incomplete or partial re-organization was found in organoids developed using the Koehler method.”

| Structure (SMILES) | supporting cells and neuronal cells in organoids [1] | abundance of ECAD/PAX2 positive vesicles with a luminal diameter greater than 50 μm [2] | inner ear hair cell differentiation in comparison with organoids developed using the Koehler method [3] | sensory hair cells and neuronal cells in organoids [4] | inner ear hair cells and nerve innervation detected [4] | hair cell and neuronal markers by single cell RNA sequencing [3] | sensory hair cells and supporting cells in organoids [4] |
| --- | --- | --- | --- | --- | --- | --- | --- |
| CN(C)c1ccccc1CN1CCCN(Cc2ccccc2N(C)C)C1c1ccncc1 [GANT61] | present | higher abundance | greater inner ear hair cell differentiation | present | > 35 days | – | – |
| CC1=C2C[C@H]3[C@@H](CC=C4C[C@@H](O)CC[C@@]43C)[C@@H]2CC[C@]12O[C@@H]1C[C@H](C)CN[C@H]1[C@H]2C [cyclopamine] | present | higher abundance | greater inner ear hair cell differentiation | present | > 35 days | ~74.48% | present |
| c1cc(-c2sc(-c3ccncc3)c(-c3ccncc3)c2-c2ccncc2)ccn1 [GANT58] | present | higher abundance | greater inner ear hair cell differentiation | present | > 35 days | ~91.88% | present |
